Columns and labels:
[1] = tested on: SOD activity in liver; assay: Determination of SOD activity in liver of carbon tetrachloride treated rats; format: in vivo, Sprague-Dawley rats; settings: for SOD activity (U/g Liver): CCl4 i.p., liver 24 hours later; for SOD activity Relative Value (%): control group = 100
Procedure: The rats were divided into 7 groups and pinitol dissolved in 10 ml of water was orally administered to the rats of the experimental groups in an amount of 200-1000 mg/kg of rat body weight everyday for 4 days. The comparative group rats were treated with Silymarin (Sigma Chemical Co.) in an amount of 200 mg/kg, the normal and control groups were each treated with 10 ml of distilled water. On day 4, a mixture of carbon tetrachloride and soybean oil (1:1 (v/v)) was injected intraperitoneally into the rats except the rats of the normal group in an amount of 0.5 ml/kg, 90 minutes after the administration of pinitol. 24 hours thereafter, SOD activity of the liver taken out from each rat was measured according to the method of Neoot et al., (Methods Enzymol., 186: 209-219 (1993)) and tested by student t-test.

[2] = tested on: glutathione content of liver; assay: Content of glutathione in liver of streptozotocin diabetic rats; format: in vivo, Sprague-Dawley rats; settings: for Glutathione content as compared to the normal group / Glutathione content Relative value: 10 mg/kg; for Glutathione content (μ mole/g): 10 mg/kg oral everyday for 4 days, liver; for Glutathione content Relative value: normal group = 100
Procedure: In order to induce diabetes in rats, streptozotocin (Sigma Chemical Co., USA) dissolved in 0.01M citrate buffer solution (pH 4.5) was injected into the abdominal cavity of 8 week-old Sprague-Dawley rats in an amount of 45 mg/kg of rat body weight. […] The diabetic rats were divided into 3 groups, each of 12-15 rats, and pinitol or chiroinositol dissolved in 10 ml of water was orally administered to the rats of two groups (experimental groups 1 and 2) in an amount of 10 mg/kg of rat body weight everyday for 4 days. Rats of the normal group and control group (diabetic group) were each treated with 10 ml of distilled water. After fasting during 18 hours, the rats were anesthetized with ethyl ether, sacrificed, the liver was taken and washed with cold physiological saline. The glutathione content of the homogenized liver solution was measured according to the method of Ellman (Arch. Biochem. Biophy., 70-77 (1959)) and the result is shown in Table IV.

[3] = tested on: serum GOT, GPT and γ-GTP levels; assay: Protective activity for liver in adults with elevated serum GOT or γ-GTP (serum GOT, GPT, γ-GTP); format: in vivo, human; settings: oral 600 mg daily for 2 months
Procedure: Pinitol was orally administered to adults (the average age: 51.8 years, man 7 and female 8) showing serum GOT or γ-GPT level higher than 50 IU/L at a daily dose of 600 mg for 2 months. Serum GOT, GPT and γ-GTP levels were determined before and after the administration.

[4] = tested on: Liver Damaged by Carbon Tetrachloride; assay: Protective activity for the liver damaged by carbon tetrachloride (blood GOT and GPT); format: in vivo, Sprague-Dawley rats; settings: CCl4 rats; for GOT / GPT: blood on day 8; for GOT Inhibition (%) / GPT Inhibition (%): day 8
Procedure: The rats were divided into 8 groups and carbon tetrachloride was injected subcutaneously into the rats except the rats of the normal group in an amount of 0.5 ml/kg at 1st and 5th day. On day 2, pinitol or chiroinositol dissolved in 10 ml of water was orally administered to the rats of the experimental groups in an amount of 5-20 mg/kg of rat body weight. The normal and control groups were treated with 10 ml of distilled water instead of pinitol. On day 8, GOT and GPT concentrations in the blood sample taken from the orbital vein of each rat was measured by using blood analyzer (Vitros DT-60, Johnson & Johnson) and the result is shown in Table II. The degree of inhibition (%) was then calculated in accordance with the following equation: [formula]

[5] = rats, oral, 5,000 mg/kg, day 14
Procedure: 6 week-old, specific pathogen-free Sprague-Dawley female rats (15 heads), each weighing about 130 to 147 g, and male rats (15 heads), each weighing about 110 to 123 g, were bred under the condition of 23±3° C., 55±15% relative humidity and 12 L/12 D photoperiod. Fodder (Harlan, U.S.A.) and water were sterilized and fed to the rats. The rats were acclimated for 1 week before the administration of pinitol.
Pinitol was dissolved in physiological saline and the solution was orally administered to each rat in an amount of 5,000 mg/kg of rat body weight. […] The weight changes of the rats were recorded at day 1, 3, 7 and 14 to examine the effect of pinitol. Further, on day 14, the rats were sacrificed and the internal organs were visually examined.

SMILES | Glutathione content as compared to the normal group [2] [%] | Glutathione content (μ mole/g) [2] [μ mole/g] | Glutathione content Relative value [2] | GOT ([4]; 5 mg/kg oral) [IU/L] | GPT ([4]; 5 mg/kg oral) [IU/L] | GOT Inhibition (%) ([4]; 5 mg/kg oral) | GPT Inhibition (%) ([4]; 5 mg/kg oral) | GOT ([4]; 10 mg/kg oral) [IU/L] | GPT ([4]; 10 mg/kg oral) [IU/L] | GOT Inhibition (%) ([4]; 10 mg/kg oral) | GPT Inhibition (%) ([4]; 10 mg/kg oral) | GOT ([4]; 20 mg/kg oral) [IU/L] | GPT ([4]; 20 mg/kg oral) [IU/L] | GOT Inhibition (%) ([4]; 20 mg/kg oral) | GPT Inhibition (%) ([4]; 20 mg/kg oral) | further results
CO[C@H]1[C@H](O)[C@@H](O)[C@@H](O)[C@H](O)[C@@H]1O [Pinitol, pinitol] | 96 | 16.38 ± 2.43 | 95.8 | 298 ± 28 | 134 ± 7 | 49.7 | 54.6 | 188 ± 22 | 92 ± 5 | 73.4 | 72.9 | 192 ± 17 | 75 ± 4 | 72.6 | 80.3 | SOD activity lower than that of the control group by ([1]; 200 mg/kg): 7%; SOD activity (U/g Liver) ([1]; 200 mg/kg oral everyday for 4 days): 217 ± 74 U/g Liver; SOD activity Relative Value (%) ([1]; 200 mg/kg): 93%; SOD activity higher than that of the control group by ([1]; 300 mg/kg): 24%; SOD activity (U/g Liver) ([1]; 300 mg/kg oral everyday for 4 days): 289 ± 45 U/g Liver; SOD activity Relative Value (%) ([1]; 300 mg/kg): 124%; Effect on SOD activity in the liver ([1]; 300 mg/kg, p<0.05): raises SOD activity in the liver; SOD activity higher than that of the control group by ([1]; 500 mg/kg): 44%; SOD activity (U/g Liver) ([1]; 500 mg/kg oral everyday for 4 days): 335 ± 52 U/g Liver; SOD activity Relative Value (%) ([1]; 500 mg/kg): 144%; SOD activity higher than that of the control group by ([1]; 1000 mg/kg): 35%; SOD activity (U/g Liver) ([1]; 1000 mg/kg oral everyday for 4 days): 315 ± 38 U/g Liver; SOD activity Relative Value (%) ([1]; 1000 mg/kg): 135%; Serum GOT After administration [3]: 31.4 ± 3.0 IU/L; Serum GPT After administration [3]: 43.2 ± 8.1 IU/L; Serum γ-GTP After administration [3]: 82.6 ± 17.5 IU/L; Serum GOT Degree of decrease (%) ([3]; vs before administration): 45.3%; Serum GPT Degree of decrease (%) ([3]; vs before administration): 51.8%; Serum γ-GTP Degree of decrease (%) ([3]; vs before administration): 41.1%; Autopsy, pathological abnormality of internal organs [5]: did not develop any pathological abnormality
OC1C(O)C(O)C(O)C(O)C1O (centres unmarked) [chiroinositol] | 85 | 14.52 ± 0.57 | 85.0 | 321 ± 35 | 156 ± 12 | 44.0 | 45.0 | 205 ± 28 | 80 ± 9 | 69.4 | 78.2 | 174 ± 26 | 88 ± 7 | 76.1 | 74.7 | –
